Test results taken from US7858621B2 (Amorepacific Corporation, priority 2006, dated 2010).

biological target: T1, vanilloid receptor (Rattus norvegicus, UniProt O35433); assay: 45Ca influx test in cultured neonatal rat DRG neurons, inhibition of capsaicin response; assay type: cell-based; conditions: neonatal rat DRG neurons, capsaicin 0.5 μM, 45Ca influx; read-out: Antagonist Calcium Uptake Test (IC50)
T1 construct: DRG nerve cells from the primary culture of 2 days were equilibrated; endogenous in cells; host or cells: primary culture of dorsal root ganglion neurons from neonatal SD rats
How it was run: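 45Ca influx measured by scintillation counting of SDS-eluted neurons after 10 min at room temperature with test compound, 0.5 μM capsaicin (final) and 10 μCi/ml 45Ca in Ca/Mg-free HEPES-HBSS pH 7.4. Cells: primary DRG neurons from newborn SD rats, cultured 2 days with NGF and Ara-C.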

T1 sequence (O35433 whole entry): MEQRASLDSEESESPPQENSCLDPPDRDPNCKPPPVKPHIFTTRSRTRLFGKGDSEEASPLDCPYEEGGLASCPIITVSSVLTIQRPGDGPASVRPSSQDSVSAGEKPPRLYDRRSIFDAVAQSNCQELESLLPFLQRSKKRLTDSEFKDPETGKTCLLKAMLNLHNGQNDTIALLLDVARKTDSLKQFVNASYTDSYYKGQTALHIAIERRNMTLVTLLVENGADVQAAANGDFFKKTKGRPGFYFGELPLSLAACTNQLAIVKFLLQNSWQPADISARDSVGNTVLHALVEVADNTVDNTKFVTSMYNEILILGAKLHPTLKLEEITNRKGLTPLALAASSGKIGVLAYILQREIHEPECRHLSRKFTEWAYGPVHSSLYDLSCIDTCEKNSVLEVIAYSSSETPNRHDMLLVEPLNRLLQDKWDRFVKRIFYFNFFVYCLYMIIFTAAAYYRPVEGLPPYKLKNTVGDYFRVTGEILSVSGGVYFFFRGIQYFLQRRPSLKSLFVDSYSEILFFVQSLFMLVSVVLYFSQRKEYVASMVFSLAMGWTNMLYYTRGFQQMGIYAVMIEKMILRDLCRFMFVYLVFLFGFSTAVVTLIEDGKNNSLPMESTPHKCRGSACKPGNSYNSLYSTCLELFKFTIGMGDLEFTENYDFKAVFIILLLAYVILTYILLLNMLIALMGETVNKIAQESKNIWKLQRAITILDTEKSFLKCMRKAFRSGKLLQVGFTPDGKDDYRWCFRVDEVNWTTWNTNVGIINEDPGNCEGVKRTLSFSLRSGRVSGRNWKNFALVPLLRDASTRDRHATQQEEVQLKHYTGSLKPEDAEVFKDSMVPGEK

Compound | IC50 [nM]
C#Cc1cc(CNC(=O)/C=C/c2ccc(C(F)(F)F)nc2/C=C/c2ccccc2)cc(F)c1NS(C)(=O)=O [Example 157, N-(3-Ethynyl-5-fluoro-4-methanesulfonylamino-benzyl)-3-(2-styryl-6-trifluoromethyl-pyridin-3-yl)-acrylamide] | 450
2-(2-piperid-1-yl-6-chloro-pyridinyl-3-yloxy)-N-(3-fluoro-4-methanesulfonylamino-benzyl)-acetamide [Example 13] | 3500
CCCCc1nc(C(F)(F)F)ccc1/C=C/C(=O)NCc1cc(F)c(NS(C)(=O)=O)c(F)c1 [Example 205, 3-(2-Butyl-6-trifluoromethyl-pyridin-3-yl)-N-(3,5-difluoro-4-methanesulfonylamino-benzyl)-acrylamide] | 86
Cc1cc(CNC(=O)/C=C/c2ccc(C(F)(F)F)nc2NC(C)C)cc(F)c1NS(C)(=O)=O [Example 220, N-(3-Fluoro-4-methanesulfonylamino-5-methyl-benzyl)-3-(2-isopropylamino-6-trifluoromethyl-pyridin-3-yl)-acrylamide] | 71
CCCNc1nc(C(F)(F)F)ccc1/C=C/C(=O)NCc1cc(C)c(NS(C)(=O)=O)c(F)c1 [Example 223, N-(3-Fluoro-4-methanesulfonylamino-5-methyl-benzyl)-3-(2-propylamino-6-trifluoromethyl-pyridin-3-yl)-acrylamide] | 55
CCCCCc1nc(C(F)(F)F)ccc1/C=C/C(=O)NCc1cc(F)c(NS(C)(=O)=O)c(F)c1 [Example 199, N-(3,5-Difluoro-4-methanesulfonylamino-benzyl)-3-(2-pentyl-6-trifluoromethyl)-pyridin-3-yl-acrylamide] | 92
CS(=O)(=O)Nc1c(F)cc(CNC(=O)/C=C/c2ccc(C(F)(F)F)nc2-c2cccc(F)c2)cc1F [Example 201, N-(4-Methanesulfonylamino-3,5-difluoro-benzyl)-3-[2-(3-fluoro-phenyl)-6-trifluoromethyl-pyridin-3-yl]-acrylamide] | 420
CCC(C)Oc1nc(C(F)(F)F)ccc1/C=C/C(=O)NCc1cc(F)c(NS(C)(=O)=O)c(C#N)c1 (stereo not shown) [Example 106, 3-(2-sec-Butoxy-6-trifluoromethyl-pyridin-3-yl)-N-(3-cyano-5-fluoro-4-methanesulfonylamino-benzyl)-acrylamide] | 83
CCC(C)Oc1nc(C(F)(F)F)ccc1/C=C/C(=O)NCc1ccc(NS(C)(=O)=O)c(C)c1 (stereo not shown) [Example 162, 3-(2-sec-Butoxy-6-trifluoromethyl-pyridin-3-yl)-N-(4-methanesulfonylamino-3-methyl-benzyl)-acrylamide] | 120
CCCNc1nc(C(F)(F)F)ccc1/C=C/C(=O)N[C@H](C)c1ccc(NS(C)(=O)=O)c(F)c1 [Example 224, (R)—N-[1-(3-Fluoro-4-methanesulfonylamino-phenyl)-ethyl]-3-(2-propylamino-6-trifluoromethyl-pyridin-3-yl)-acrylamide] | 16

More lines, now with the values ahead:

IC50 [nM] | Compound
62 | CCC(C)Cc1nc(C(F)(F)F)ccc1/C=C/C(=O)N[C@H](C)c1ccc(NS(C)(=O)=O)c(F)c1 (stereo partly drawn) [Example 211, (R)-3-[2-(2-Methyl-butyl)-6-trifluoromethyl-pyridin-3-yl]-N-[1-(3-fluoro-4-methanesulfonylamino-phenyl)-ethyl]-acrylamide]
400 | CS(=O)(=O)Nc1c(F)cc(CNC(=O)/C=C/c2ccc(C(F)(F)F)nc2CCc2ccccc2)cc1C(F)(F)F [Example 189, N-(3-Fluoro-4-methanesulfonylamino-5-trifluoromethyl-benzyl)-3-(2-phenethyl-6-trifluoromethyl-pyridin-3-yl)-acrylamide]
120 | C[C@@H](NC(=O)/C=C/c1ccc(C(F)(F)F)nc1N1CCCCC1)c1cc(F)c(NS(C)(=O)=O)c(F)c1 [Example 239, (R)—N-[1-(3,5-Difluoro-4-methanesulfonylamino-phenyl)-ethyl]-3-(2-piperid-1-yl-6-trifluoromethyl-pyridin-3-yl)-acrylamide]
1600 | CC(C)(C)c1ccc(OCC(=O)NCc2ccc(NS(C)(=O)=O)c(F)c2)c(Br)n1 [Examples 28]
45 | CCCCNc1nc(C(F)(F)F)ccc1/C=C/C(=O)N[C@H](C)c1cc(F)c(NS(C)(=O)=O)c(F)c1 [Example 238, (R)-3-(2-Butylamino-6-trifluoromethyl-pyridin-3-yl)-N-[(1R)-(3,5-difluoro-4-methanesulfonylamino-phenyl)-ethyl]-acrylamide]
240 | C#Cc1cc(CNC(=O)/C=C(\CCC)c2ccc(C(F)(F)F)nc2CCC)cc(F)c1NS(C)(=O)=O [Example 276]
120 | CS(=O)(=O)Nc1c(F)cc(CNC(=O)/C=C/c2ccc(C(F)(F)F)nc2CCc2ccccc2)cc1F [Example 203, N-(3,5-Difluoro-4-methanesulfonylamino-benzyl)-3-(2-phenethyl-6-trifluoromethyl-pyridin-3-yl)-acrylamide]
1500 | CS(=O)(=O)Nc1ccc(CNC(=O)/C=C/c2ccc(C(F)(F)F)nc2N2CCOCC2)cc1F [Example 5, N-(3-Fluoro-4-methanesulfonylamino-benzyl)-3-(2-morpholin-4-yl-6-trifluoromethyl-pyridin-3-yl)-acrylamide]
290 | C#Cc1cc(CNC(=O)/C=C/c2ccc(C(C)(C)C)nc2OC)cc(F)c1NS(C)(=O)=O [Example 11, 3-(6-tert-Butyl-2-methoxy-pyridin-3-yl)-N-(3-ethynyl-5-fluoro-4-methanesulfonylamino-benzyl)-acrylamide]
630 | CS(=O)(=O)Nc1c(F)cc(CNC(=O)/C=C/c2ccc(C(F)(F)F)nc2Oc2ccccc2)cc1C#N [Example 105, N-(3-Cyano-5-fluoro-4-methanesulfonylamino-benzyl)-3-(2-phenoxy-6-trifluoromethyl-pyridin-3-yl)-acrylamide]
1100 | CS(=O)(=O)Nc1ccc(CNC(=O)/C=C/c2ccc(C(F)(F)F)nc2N2CCCCC2)cc1F [Example 26, N-(3-Fluoro-4-methanesulfonylamino-benzyl)-3-(2-piperid-1-yl-6-trifluoromethyl-pyridinyl-3-yl)-acrylamide]
270 | C#Cc1cc(CNC(=O)/C=C/c2ccc(C(F)(F)F)nc2-c2ccsc2)cc(F)c1NS(C)(=O)=O [Example 119, N-(3-Ethynyl-5-fluoro-4-methanesulfonylamino-benzyl)-3-(2-thien-3-yl-6-trifluoromethyl-pyridin-3-yl)-acrylamide]
32 | C=Cc1cc(CNC(=O)/C=C/c2ccc(C(F)(F)F)nc2NCC)cc(F)c1NS(C)(=O)=O [Example 250, 3-(2-Ethylamino-6-trifluoromethyl-pyridin-3-yl)-N-(3-fluoro-4-methanesulfonylamino-5-vinyl-benzyl)-acrylamide]
150 | C#Cc1cc(CNC(=O)/C=C/c2ccc(C(F)(F)F)nc2NC2CCCC2)cc(F)c1NS(C)(=O)=O [Example 73, 3-(2-Cyclopentylamino-6-trifluoromethyl-pyridin-3-yl)-N-(3-ethynyl-5-fluoro-4-methanesulfonylamino-benzyl)-acrylamide]
280 | C#Cc1cc(CNC(=O)/C=C/c2ccc(C(F)(F)F)nc2SCCC)cc(F)c1NS(C)(=O)=O [Example 185, N-(3-Ethynyl-5-fluoro-4-methanesulfonylamino-benzyl)-3-(2-propylthio-6-trifluoromethyl-pyridin-3-yl)-acrylamide]
